From patent publication US20240208989A1, “NOVEL 12-EPI-MUTILIN COMPOUNDS AND USES THEREOF” (NABRIVA THERAPEUTICS GMBH, priority 2021, published 2024)
Values after ≈ are worked out from the molar mass of the structure shown. Structures can show the parent of a compound that is named as a salt. Where two headings read alike, the source gives them in different places.

How the values were obtained:
[1] = tested on: Staphylococcus aureus ATCC49951; assay: MIC by standard broth microdilution (CLSI), CAMHB; type: cell-based; settings: for MIC: Staphylococcus aureus, ATCC49951
Description: (§1) The in vitro activity against bacteria including isolates that are resistant to Lefamulin was determined by standard broth microdilution according to the Clinical and Laboratory Standards Institute CLSI document (Performance Standards for Antimicrobial Susceptibility Testing) M100Ed29E (2019) and (Methods for Dilution Antimicrobial Susceptibility Test for Bacteria That Grow Aerobically) M07Ed11 (2018) or other years' versions thereof. The data were obtained using cation-adjusted Mueller Hinton broth medium (CAMHB).

[2] = tested on: Staphylococcus aureus cfr (+); assay: MIC by standard broth microdilution (CLSI), CAMHB; type: cell-based; settings: for MIC: Staphylococcus aureus, read-out: MIC Staphylococcus aureus cfr (+) (n = 2), Lefamulin resistant, n = 2 isolates
Description: as §1

[3] = tested on: Staphylococcus aureus vga(A) (+); assay: MIC by standard broth microdilution (CLSI), CAMHB; type: cell-based; settings: Lefamulin resistant; for MIC: Staphylococcus aureus
Description: as §1

[4] = tested on: Streptococcus agalactiae lsa(E); assay: MIC by standard broth microdilution (CLSI), CAMHB; type: cell-based; settings: for MIC: Streptococcus agalactiae, read-out: MIC Streptococcus agalactiae lsa(E) (n = 2), Lefamulin resistant, n = 2 isolates
Description: as §1

[5] = tested on: Streptococcus pneumoniae ATCC49619; assay: MIC by standard broth microdilution (CLSI), CAMHB; type: cell-based; settings: for MIC: Streptococcus pneumoniae, ATCC49619
Description: as §1

[6] = Cytotoxicity, human hepatocyte assay (ATPlite); type: cell-based; settings: primary human hepatocytes
Description: The cytotoxicity for compounds of the present invention was determined using a human hepatocyte assay. Primary human hepatocytes were incubated with various test compound concentrations (in triplicate) for 2 hours. Viability of cells is then measured by the luminescence ATPlite detection assay system according to the manufacturer (Perkin Elmer). ATP is a marker for cell viability because it is present in all metabolically active cells and the concentration declines very rapidly when the cells undergo necrosis or apoptosis. The ATPlite assay system is based on the production of light caused by the reaction of ATP with added luciferase and D-luciferin, where the emitted light is proportional to the ATP concentration (within certain limits).

Cutibacterium acnes = assay: MIC by standard agar dilution (CLSI M11), anaerobic; type: cell-based; settings: Wilkins-Chalgren-Agar, 48 h, 37° C., read-out: MIC Cutibacterium acnes (n = 5)
Cutibacterium avidum = assay: as above; type: cell-based; settings: Wilkins-Chalgren-Agar, 48 h, 37° C., read-out: MIC Cutibacterium avidum (n = 5)
Cutibacterium granulosum = assay: as above; type: cell-based; settings: Wilkins-Chalgren-Agar, 48 h, 37° C., read-out: MIC Cutibacterium granulosum (n = 7)
Borreliella spp. = assay: MIC by broth microdilution against Borreliella strains; type: cell-based, Borreliella burgdorferi (n=5) and Borreliella garinii (n=1); settings: BSK II medium, n = 6 isolates
Description: Minimal inhibitory concentrations (MIC) were determined against five (n=5) Borreliella burgdorferi isolates (ATCC 51990, 55131, 35211, 35210, 53899) and one (n=1) Borreliella garinii isolate (ATCC 51991) by broth microdilution technique ([…]., Jorgensen, J. H., Barbour, A. G. In vitro antimicrobial susceptibility testing of Boreliella burgdorferi: a microdilution MIC method and time-kill studies. […] Feng, J., Wang, T., Shi, W., et al. Identification of novel activity against Boreliella burgdorferi persisters using an FDA approved drug library. […] (2018) Methods for dilution antimicrobial susceptibility tests for bacteria that grow aerobically: Eleventh edition. […]; CLSI. (2021) Performance Standards for Antimicrobial Susceptibility Testing: Thirty-first Edition. M100-S31). Briefly, Borreliella spp. were grown at 36° C. under microaerophilic conditions in BSK II medium until the logarithmic or stationary growth phase was reached. The growth phase was determined by semiquantitative measurement of active and dormant cells by fluorescence microscopy of cells stained with the fluorescent dyes SYBR Green I and propidium iodide. An inoculum of 10^5-10^6 spirochetes/mL was used to inoculate broth microdilution plates containing serially 2-fold diluted test compounds.

[7] = 192 h, stationary growth phase, read after 8 days, read-out: MIC (μg/mL) for Stationary Growth Phase Culture (n = 6)
[8] = logarithmic growth phase, read after 5 or 6 days, read-out: MIC (μg/mL) for Logarithmic Growth Phase Culture (n = 6)
[9] = Lefamulin resistant, n = 2 isolates

Compound | MIC (Cutibacterium acnes) [µg/mL] | MIC (Cutibacterium avidum) [µg/mL] | MIC (Cutibacterium granulosum) [µg/mL] | MIC (Borreliella spp.; [7]) [µg/mL] | MIC (Borreliella spp.; [8]) [µg/mL] | further results
Cc1nccnc1/C=C/[C@@]1(C)C[C@@H](OC(=O)CS[C@H]2CO[C@H]3[C@@H]2OC[C@@H]3N)[C@]2(C)[C@H](C)CC[C@]3(CCC(=O)[C@H]32)[C@@H](C)[C@@H]1O [Example 3, 12-epi-12-Desvinyl-14-O-{[(3S,3aR,6S,6aS)-3-amino-2,3,3a,5,6,6a-hexahydrofuro[3,2-b]furan-6-yl]sulfanylacetyl}-12-[(E)-2-(3-methyl-pyrazin-2-yl)-ethenyl]-mutilin dihydrochloride] | 0.03 to 0.5 | 0.03 to 0.25 | 0.015 to 0.12 | 0.001 to 0.008 | 0.001 to 0.004 | MIC [1]: ≤ 0.03 µg/mL; MIC [2]: 1 µg/mL; MIC [3]: 1 µg/mL; MIC [4]: 0.5 to 1 µg/mL; MIC [5]: ≤ 0.03 µg/mL; IC50 at 2 h [6]: > 433 µM
Cc1nccnc1/C=C/[C@@]1(C)C[C@@H](OC(=O)CSC2CCNCC2)[C@]2(C)[C@H](C)CC[C@]3(CCC(=O)[C@H]32)[C@@H](C)[C@@H]1O [BC-9842, 12-epi-12-desvinyl-14-O-[(Piperidin-4-ylsulfanyl]-acetyl]-12-[2-(3-methyl-pyrazin-2-yl)-ethenyl]-mutilin] | 0.03 to 0.05 (≈ 0.0526 to 0.0877 µM) | 0.015 to 0.25 (≈ 0.0263 to 0.439 µM) | 0.015 to 0.12 (≈ 0.0263 to 0.211 µM) | 0.001 to 0.004 (≈ 0.00175 to 0.00702 µM) | 0.001 to 0.004 (≈ 0.00175 to 0.00702 µM) | –
C[C@H]1c2cccc(O)c2C(=O)C2=C(O)[C@]3(O)C(=O)C(C(N)=O)=C(O)[C@@H](N(C)C)[C@@H]3[C@@H](O)[C@@H]21 [Doxycycline] | – | – | – | 0.03 to 0.5 (≈ 0.0675 to 1.13 µM) | 0.03 to 0.5 (≈ 0.0675 to 1.13 µM) | –
CC1(C)S[C@@H]2[C@H](NC(=O)[C@H](N)c3ccc(O)cc3)C(=O)N2[C@H]1C(=O)O [Amoxicillin] | – | – | – | 0.03 to 0.12 (≈ 0.0821 to 0.328 µM) | 0.03 to 0.12 (≈ 0.0821 to 0.328 µM) | –
12-epi-12-desvinyl-14-O-[(azepan-4-ylsulfanyl)-acetyl]-12-((E)-2-pyridin-3-yl-ethenyl) mutilin hydrochloride [Example 154 of WO 2015/110481, reference compound] | – | – | – | – | – | MIC Staphylococcus aureus ATCC49951 [1]: ≤0.03 µg/mL; MIC Staphylococcus aureus cfr (+) (n = 2) [2, 9]: 0.5 to 4 µg/mL; MIC Staphylococcus aureus vga(A) (+) [3]: 2 to 4 µg/mL; MIC Streptococcus agalactiae lsa(E) (n = 2) [4, 9]: 4 to 8 µg/mL; MIC Streptococcus pneumoniae ATCC49619 [5]: ≤0.03 µg/mL
CC[C@H]1OC(=O)[C@H](C)[C@@H](O[C@H]2C[C@@](C)(OC)[C@@H](O)[C@H](C)O2)[C@H](C)[C@@H](O[C@@H]2O[C@H](C)C[C@H](N(C)C)[C@H]2O)[C@](C)(O)C[C@@H](C)C(=O)[C@H](C)[C@@H](O)[C@]1(C)O [Erythromycin] | – | – | – | 0.001 to 0.004 (≈ 0.00136 to 0.00545 µM) | 0.002 to 0.016 (≈ 0.00273 to 0.0218 µM) | –
C=C[C@]1(C)C[C@@H](OC(=O)CS[C@@H]2CC[C@@H](N)C[C@H]2O)[C@]2(C)[C@H](C)CC[C@]3(CCC(=O)[C@H]32)[C@@H](C)[C@@H]1O [Lefamulin, reference compound] | 0.03 to 0.5 (≈ 0.0591 to 0.985 µM) | 0.03 to 0.06 (≈ 0.0591 to 0.118 µM) | 0.015 to 0.25 (≈ 0.0295 to 0.492 µM) | 0.001 to 0.008 (≈ 0.00197 to 0.0158 µM) | 0.001 to 0.008 (≈ 0.00197 to 0.0158 µM) | MIC [1]: ≤ 0.03 µg/mL; MIC [2]: 16 µg/mL (≈ 31.5 µM); MIC [3]: 8 µg/mL (≈ 15.8 µM); MIC [4]: 16 µg/mL (≈ 31.5 µM); MIC [5]: ≤ 0.03 µg/mL
C[C@H]1COc2c(N3CCN(C)CC3)c(F)cc3c(=O)c(C(=O)O)cn1c23 [Levofloxacin] | – | – | – | 2 to 8 (≈ 5.53 to 22.1 µM) | 2 to 4 (≈ 5.53 to 11.1 µM) | –
CO/N=C(\C(=O)N[C@@H]1C(=O)N2C(C(=O)O)=C(COC(N)=O)CS[C@H]12)c1ccco1 [Cefuroxime] | – | – | – | 0.016 to 0.25 (≈ 0.0377 to 0.589 µM) | 0.016 to 0.25 (≈ 0.0377 to 0.589 µM) | –
CO/N=C(\C(=O)N[C@@H]1C(=O)N2C(C(=O)O)=C(CSc3nc(=O)c(=O)[nH]n3C)CS[C@H]12)c1csc(N)n1 [Ceftriaxone] | – | – | – | 0.004 to 0.03 (≈ 0.00721 to 0.0541 µM) | 0.004 to 0.016 (≈ 0.00721 to 0.0289 µM) | –
C[C@@H]1CC[C@@]23CCC(=O)[C@H]2[C@]1(C)[C@H](OC(=O)CS[C@H]1CO[C@H]2[C@@H]1OC[C@@H]2N)C[C@](C)(/C=C/c1cccnc1)[C@@H](O)[C@@H]3C [Example 1, 12-epi-12-Desvinyl-14-O-{[(3S,3aR,6S,6aS)-3-amino-2,3,3a,5,6,6a-hexahydrofuro[3,2-b]furan-6-yl]sulfanylacetyl}-12-[(E)-2-(3-pyridyl)-ethenyl]-mutilin dihydrochloride] | 0.015 to 0.12 | 0.015 to 0.06 | 0.015 to 0.03 | 0.001 to 0.004 | 0.001 to 0.002 | MIC [1]: ≤ 0.03 µg/mL; MIC [2]: 0.12 to 0.5 µg/mL; MIC [3]: 0.5 µg/mL; MIC [4]: 0.06 to 0.12 µg/mL; MIC [5]: ≤ 0.03 µg/mL; IC50 at 2 h [6]: 215 µM
C[C@@H]1CC[C@@]23CCC(=O)[C@H]2[C@]1(C)[C@H](OC(=O)CS[C@H]1CO[C@H]2[C@@H]1OC[C@@H]2N)C[C@](C)(/C=C/c1cncnc1)[C@@H](O)[C@@H]3C [Example 2, 12-epi-12-Desvinyl-14-O-{[(3S,3aR,6S,6aS)-3-amino-2,3,3a,5,6,6a-hexahydrofuro[3,2-b]furan-6-yl]sulfanylacetyl}-12-[(E)-2-(pyrimidin-5-yl)-ethenyl]-mutilin dihydrochloride] | 0.015 to 0.12 | 0.015 to 0.06 | 0.015 to 0.03 | 0.001 to 0.004 | 0.001 to 0.002 | MIC [1]: ≤ 0.03 µg/mL; MIC [2]: 0.12 to 1 µg/mL; MIC [3]: 1 µg/mL; MIC [4]: 0.03 to 0.06 µg/mL; MIC [5]: ≤ 0.03 µg/mL; IC50 at 2 h [6]: > 609 µM
C=C[C@]1(C)C[C@@H](OC(=O)CO)[C@]2(C)[C@H](C)CC[C@]3(CCC(=O)[C@H]32)[C@@H](C)[C@@H]1O [Pleuromutilin] | – | – | – | 0.12 to 2 (≈ 0.317 to 5.28 µM) | 0.12 to 1 (≈ 0.317 to 2.64 µM) | –
CC[C@H]1OC(=O)[C@H](C)[C@@H](O[C@H]2C[C@@](C)(OC)[C@@H](O)[C@H](C)O2)[C@H](C)[C@@H](O[C@@H]2O[C@H](C)C[C@H](N(C)C)[C@H]2O)[C@](C)(O)C[C@@H](C)CN(C)[C@H](C)[C@@H](O)[C@]1(C)O [Azithromycin] | – | – | – | 0.001 to 0.004 (≈ 0.00134 to 0.00534 µM) | 0.001 to 0.004 (≈ 0.00134 to 0.00534 µM) | –
